We go through 16 molecules from patent publication US12187723B2 (BRISTOL-MYERS SQUIBB COMPANY, priority 2019, dated 2025).

One assay addresses T1, human TLR7 (Homo sapiens, UniProt Q9NYK1).
T1 construct: host or cells: HEK-Blue cells
T1 sequence (Q9NYK1 27-1049): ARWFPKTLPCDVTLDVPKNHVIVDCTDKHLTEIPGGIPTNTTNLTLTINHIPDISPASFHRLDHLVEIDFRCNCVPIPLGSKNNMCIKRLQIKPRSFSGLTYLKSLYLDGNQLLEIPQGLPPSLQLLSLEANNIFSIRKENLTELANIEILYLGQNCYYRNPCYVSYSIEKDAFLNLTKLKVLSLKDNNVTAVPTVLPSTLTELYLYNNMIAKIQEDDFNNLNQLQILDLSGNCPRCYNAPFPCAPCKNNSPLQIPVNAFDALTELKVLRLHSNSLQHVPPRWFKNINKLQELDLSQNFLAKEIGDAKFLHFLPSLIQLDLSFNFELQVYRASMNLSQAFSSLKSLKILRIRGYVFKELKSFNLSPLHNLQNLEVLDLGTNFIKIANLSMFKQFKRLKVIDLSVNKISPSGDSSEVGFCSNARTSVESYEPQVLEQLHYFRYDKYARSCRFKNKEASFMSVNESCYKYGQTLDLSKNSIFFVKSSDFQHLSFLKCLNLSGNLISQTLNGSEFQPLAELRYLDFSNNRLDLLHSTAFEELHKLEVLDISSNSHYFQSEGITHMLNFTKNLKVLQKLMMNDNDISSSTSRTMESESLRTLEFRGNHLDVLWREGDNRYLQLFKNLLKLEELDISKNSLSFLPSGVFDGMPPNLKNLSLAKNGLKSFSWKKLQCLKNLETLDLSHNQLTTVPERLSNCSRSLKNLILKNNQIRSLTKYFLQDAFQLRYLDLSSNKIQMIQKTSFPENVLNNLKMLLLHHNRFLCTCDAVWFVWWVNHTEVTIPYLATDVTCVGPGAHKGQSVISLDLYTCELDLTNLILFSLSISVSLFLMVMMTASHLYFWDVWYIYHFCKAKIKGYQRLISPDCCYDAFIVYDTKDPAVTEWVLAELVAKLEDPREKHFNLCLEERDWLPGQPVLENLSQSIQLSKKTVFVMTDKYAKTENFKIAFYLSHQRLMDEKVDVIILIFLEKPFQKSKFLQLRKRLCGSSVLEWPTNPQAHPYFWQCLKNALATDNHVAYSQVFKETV
Nature of the assay: TLR7 inhibition reporter assay (HEK-Blue SEAP). It counts as cell-based. Conditions: HEK-Blue cells overexpressing human TLR7, gardiquimod 7.5 μM, 22 hour incubation. The essentials: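 In this cell reporter format, test compounds at 0.05 nM-50 μM final incubate 22 h with seeded cells (TLR7 15000, TLR8 20,000 per well). SEAP read-out by HEK-Blue Detection medium yields % inhibition relative to agonist/DMSO and known-inhibitor wells.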
A general note: A reporter such as luciferase makes a cellular process visible.

Another assay addresses T2, human TLR9 (Homo sapiens, UniProt Q9NR96).
T2 construct: host or cells: HEK-Blue cells
T2 sequence (Q9NR96 26-1032): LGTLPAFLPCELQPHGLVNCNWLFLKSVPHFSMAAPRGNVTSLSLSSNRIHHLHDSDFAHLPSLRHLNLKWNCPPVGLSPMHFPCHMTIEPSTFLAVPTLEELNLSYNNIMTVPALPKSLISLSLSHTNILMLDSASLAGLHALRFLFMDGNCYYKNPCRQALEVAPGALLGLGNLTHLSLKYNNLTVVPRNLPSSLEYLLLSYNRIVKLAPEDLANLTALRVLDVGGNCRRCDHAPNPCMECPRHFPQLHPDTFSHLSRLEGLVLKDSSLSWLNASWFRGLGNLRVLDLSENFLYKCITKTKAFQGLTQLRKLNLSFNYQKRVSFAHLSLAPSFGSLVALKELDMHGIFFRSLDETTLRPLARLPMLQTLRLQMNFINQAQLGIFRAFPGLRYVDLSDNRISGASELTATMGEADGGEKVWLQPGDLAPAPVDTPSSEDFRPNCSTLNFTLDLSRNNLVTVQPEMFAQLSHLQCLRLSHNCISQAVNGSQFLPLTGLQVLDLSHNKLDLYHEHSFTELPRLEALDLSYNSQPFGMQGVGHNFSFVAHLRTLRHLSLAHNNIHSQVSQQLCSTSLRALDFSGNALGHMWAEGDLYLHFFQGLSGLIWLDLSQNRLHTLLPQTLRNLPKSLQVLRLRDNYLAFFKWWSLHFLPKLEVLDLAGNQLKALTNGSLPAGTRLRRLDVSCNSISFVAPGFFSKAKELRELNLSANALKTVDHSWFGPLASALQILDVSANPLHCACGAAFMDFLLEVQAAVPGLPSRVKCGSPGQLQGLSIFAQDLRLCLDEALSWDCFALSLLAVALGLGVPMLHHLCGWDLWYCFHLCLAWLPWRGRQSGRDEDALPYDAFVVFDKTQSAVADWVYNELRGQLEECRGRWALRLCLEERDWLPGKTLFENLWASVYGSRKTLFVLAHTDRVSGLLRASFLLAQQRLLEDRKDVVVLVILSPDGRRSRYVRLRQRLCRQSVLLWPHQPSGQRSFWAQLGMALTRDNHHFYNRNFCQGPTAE
As to the kind of experiment: TLR9 inhibition reporter assay (HEK-Blue SEAP). It counts as cell-based. Conditions: HEK-Blue cells overexpressing human TLR9, ODN2006 5 nM, 22 hour incubation. The essentials: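 Dose–response from 0.05 nM to 50 μM was run in HEK-Blue human TLR7, TLR8 and TLR9 reporter cells. After 30 min at room temperature with compound, ligand was added (TLR7 gardiquimod 7.5 μM; TLR8 R848 15.9 μM; TLR9 ODN2006 5 nM) and SEAP measured next day, at 22 h.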

The term IC50 denotes the concentration that gives 50% inhibition. Read a low IC50 as greater potency in that assay. In the case of `CCc1cc2c(cc1-c1cc(OC)c3ncnn3c1)[nH]c(=O)n2[C@@H]1CCCN(CC(C)(C)C)C1` [Example 180, (R)-6-ethyl-5-(8-methoxy-[1,2,4]triazolo[1,5-a]pyridin-6-yl)-1-(1-neopentylpiperidin-3-yl)-1,3-dihydro-2H-benzo[d]imidazol-2-one], the results for the 50% inhibitory concentration (IC50) against human TLR7 and at human TLR9 were 1.42 nM and 10300 nM, respectively.

On to `Cc1cc2c(cc1-c1cc(C)c3ncnn3c1)[nH]c(=O)n2[C@@H]1CCCN(C)C1` [Example 15, (R)-6-methyl-5-(8-methyl-[1,2,4]triazolo[1,5-a]pyridin-6-yl)-1-(1-methylpiperidin-3-yl)-1,3-dihydro-2H-benzo[d]imidazol-2-one], for which the half-inhibitory concentration (IC50) on human TLR7 was 24.6 nM; at human TLR9, 5940 nM.

Consider `CCC(CC)CN[C@H]1CC[C@@H](n2c(=O)[nH]c3cc(-c4cn5ncnc5c(C)c4C)c(C(C)C)cc32)CC1` [Example 198], for which the IC50 came out at 4.92 nM against human TLR7 and 2130 nM against human TLR9.

With `COc1cc(-c2cc3[nH]c(=O)n(C4CCN(CCS(C)(=O)=O)CC4)c3cc2C(C)C)cn2ncnc12` [Example 224, 6-isopropyl-5-(8-methoxy-[1,2,4]triazolo[1,5-a]pyridin-6-yl)-1-(1-(2-(methylsulfonyl)ethyl)piperidin-4-yl)-1,3-dihydro-2H-benzo[d]imidazol-2-one], the IC50 against human TLR7 is 82.4 nM; at human TLR9 it was above 50000 nM.

As for `COc1c(C)c(-c2cc3[nH]c(=O)n(C4CCC(N5CCC(F)(F)CC5)CC4)c3cc2C(C)C)cn2ncnc12` (single isomer, unassigned) [Example 230, 1-(4-(4,4-difluoropiperidin-1-yl)cyclohexyl)-6-isopropyl-5-(8-methoxy-7-methyl-[1,2,4]triazolo[1,5-a]pyridin-6-yl)-1,3-dihydro-2H-benzo[d]imidazol-2-one], the IC50 against human TLR7 is 60.3 nM; against human TLR9 it was above 50000 nM.

Regarding `CCc1cc2c(cc1-c1cc(OC)c3ncnn3c1)[nH]c(=O)n2[C@@H]1CCCN(C2CCOC2)C1` (stereo partly drawn) [Example 213, 6-ethyl-5-(8-methoxy-[1,2,4]triazolo[1,5-a]pyridin-6-yl)-1-((3R)-1-(tetrahydrofuran-3-yl)piperidin-3-yl)-1,3-dihydro-2H-benzo[d]imidazol-2-one], the half-maximal inhibitory concentration (IC50) against human TLR7 was 37.3 nM; at human TLR9 it was above 50000 nM.

As to `CCc1cc2c(cc1-c1cc(OC)c3ncnn3c1)[nH]c(=O)n2[C@@H]1CCCN(CC(CC)CC)C1` [Example 178, (R)-6-ethyl-1-(1-(2-ethylbutyl)piperidin-3-yl)-5-(8-methoxy-[1,2,4]triazolo[1,5-a]pyridin-6-yl)-1,3-dihydro-2H-benzo[d]imidazol-2-one], the IC50 amounted to 0.81 nM at human TLR7 and 7470 nM against human TLR9.

With `CCN1CCC[C@H](n2c(=O)[nH]c3cc(-c4cc(C)c5ncnn5c4)c(C)cc32)C1` [Example 12, (S)-1-(1-ethylpiperidin-3-yl)-6-methyl-5-(8-methyl-[1,2,4]triazolo[1,5-a]pyridin-6-yl)-1,3-dihydro-2H-benzo[d]imidazol-2-one], the IC50 against human TLR7 came out at 144 nM; against human TLR9, 7640 nM.

In the case of `COc1cc(-c2cc3[nH]c(=O)n([C@H]4CC[C@@H](NC(C)C)CC4)c3cc2C(C)C)cn2ncnc12` [Example 192, 6-isopropyl-1-((1s,4s)-4-(isopropylamino)cyclohexyl)-5-(8-methoxy-[1,2,4]triazolo[1,5-a]pyridin-6-yl)-1,3-dihydro-2H-benzo[d]imidazol-2-one], the results for the IC50 against human TLR7 and at human TLR9 were 1.97 nM and 16600 nM, respectively.

Consider `COc1cc(-c2cc3[nH]c(=O)n(C4CCC(N5CCC6(CC5)COC6)CC4)c3cc2C(C)C)cn2ncnc12` (centres unmarked) [Example 239, 1-(4-(2-oxa-7-azaspiro[3.5]nonan-7-yl)cyclohexyl)-6-isopropyl-5-(8-methoxy-[1,2,4]triazolo[1,5-a]pyridin-6-yl)-1,3-dihydro-2H-benzo[d]imidazol-2-one], for which the 50% inhibitory concentration (IC50) at human TLR7 was 1.69 nM; on human TLR9 it was 13000 nM.

As for `CCc1cc2c(cc1-c1cc(OC)c3ncnn3c1)[nH]c(=O)n2[C@H]1CC[C@@H](N(CC)CC)CC1` [Example 169, 1-((1s,4s)-4-(diethylamino)cyclohexyl)-6-ethyl-5-(8-methoxy-[1,2,4]triazolo[1,5-a]pyridin-6-yl)-1,3-dihydro-2H-benzo[d]imidazol-2-one], the figures for the half-inhibitory concentration (IC50) against human TLR7 and against human TLR9 were 1.84 nM and 18300 nM, respectively.

`COc1cc(-c2cc3[nH]c(=O)n(C4CCC(N5CC(OC)C5)CC4)c3cc2C(C)C)cn2ncnc12` (centres unmarked) [Example 237, 6-isopropyl-5-(8-methoxy-[1,2,4]triazolo[1,5-a]pyridin-6-yl)-1-(4-(3-methoxyazetidin-1-yl)cyclohexyl)-1,3-dihydro-2H-benzo[d]imidazol-2-one]: the half-inhibitory concentration (IC50) against human TLR7 worked out at 1.31 nM; against human TLR9 it was 11300 nM.

As to `CCc1cc2c(cc1-c1cc(OC)c3ncnn3c1)[nH]c(=O)n2[C@@H]1CCCN(CCOC)C1` [Example 227, (R)-6-ethyl-5-(8-methoxy-[1,2,4]triazolo[1,5-a]pyridin-6-yl)-1-(1-(2-methoxyethyl)piperidin-3-yl)-1,3-dihydro-2H-benzo[d]imidazol-2-one], the 50% inhibitory concentration (IC50) against human TLR7 stood at 2.86 nM; against human TLR9, 15200 nM.

Consider `COc1cc(-c2cc3[nH]c(=O)n([C@H]4CC[C@H](NCC(C)C)CC4)c3cc2C(C)C)cn2ncnc12` [Example 204, 1-((1r,4s)-4-(isobutylamino)cyclohexyl)-6-isopropyl-5-(8-methoxy-[1,2,4]triazolo[1,5-a]pyridin-6-yl)-1,3-dihydro-2H-benzo[d]imidazol-2-one], for which the IC50 against human TLR7 was determined as 3.21 nM; on human TLR9 it was 11700 nM.

For `COc1cc(-c2cc3[nH]c(=O)n([C@H]4CC[C@H](NC(C)C)CC4)c3cc2C(C)C)cn2ncnc12` [Example 203, 6-isopropyl-1-((1r,4s)-4-(isopropylamino)cyclohexyl)-5-(8-methoxy-[1,2,4]triazolo[1,5-a]pyridin-6-yl)-1,3-dihydro-2H-benzo[d]imidazol-2-one], the IC50 at human TLR7 was 4.72 nM; against human TLR9, 30900 nM.

`COc1cc(-c2cc3[nH]c(=O)n([C@H]4CC[C@@H](NCC(C)(C)C)CC4)c3cc2C(C)C)cn2ncnc12` [Example 197, 6-isopropyl-5-(8-methoxy-[1,2,4]triazolo[1,5-a]pyridin-6-yl)-1-((1s,4s)-4-(neopentylamino)cyclohexyl)-1,3-dihydro-2H-benzo[d]imidazol-2-one]: the IC50 turned out to be 0.8 nM at human TLR7 and 6260 nM against human TLR9.
